Laboratory results from patent US20240360165A1, “INHIBITORS OF CYCLIN DEPENDENT KINASE 7 (CDK7)” (Syros Pharmaceuticals, Inc., priority 2016, published 2024).
Like-named read-outs stand apart in the source and are kept apart here.

Assays:
[1] = biological target: T1, CDK12 (aa686-1082)/Cyclin K complex (Homo sapiens, UniProt Q9NYV4); assay: CDK12 inhibition assay (Caliper/LabChip EZ Reader kinase assay); format: biochemical; settings: Table 1; CDK12 (aa686-1082)/Cyclin K 50 nM, ATP 2 mM, 3 hr at 27° C.
T1 construct: CDK12 (aa686-1082)/Cyclin K complex
Description: (§1) Compounds of the invention were assayed for inhibition of CDK7, CDK9, CDK12, and CDK2 activity at Biortus Biosciences (Jiangyin, Jiangsu Province, P.R. of China) using kinase assays for each CDK developed with a Caliper/LabChip EZ Reader (Perkin Elmer, Waltham, MA).
(§2) Furthermore, the CDK9 inhibition assay used CDK9/Cyclin T1 complex (8 nM) and “5-FAM-CDK9tide” peptide substrate (2 μM, synthesized fluorophore-labeled peptide with the following sequence: 5-FAM-GSRTPMY-NH2 where 5-FAM is defined above and NH2 signifies a C-terminal amide) with 10 mM MgCl2 in the buffer composition listed above. […] Additionally, the CDK2 inhibition assay used CDK2/Cyclin E1 complex (0.5 nM) and “5-FAM-CDK7tide” ([…]) as defined above, with 2 mM MgCl2 in the buffer composition listed above.

[2] = biological target: CDK7/Cyclin H/MAT1 complex (Homo sapiens, UniProt P50613); assay: CDK7 inhibition assay (Caliper/LabChip EZ Reader kinase assay); format: biochemical; settings: Table 1; CDK7/Cyclin H/MAT1 6 nM, ATP 2 mM, 35 min at 27° C.
Description: as §1, §2

[3] = biological target: CDK9/Cyclin T1 complex (Homo sapiens, UniProt P50750); assay: CDK9 inhibition assay (Caliper/LabChip EZ Reader kinase assay); format: biochemical; settings: Table 1; CDK9/Cyclin T1 8 nM, ATP 2 mM, 15 min at 27° C.
Description: as §1, §2

[4] = biological target: CDK2/Cyclin E1 complex (Homo sapiens, UniProt P24941); assay: CDK2 inhibition assay (Caliper/LabChip EZ Reader kinase assay); format: biochemical; settings: Table 1; CDK2/Cyclin E1 0.5 nM, ATP 2 mM, 35 min at 27° C.
Description: as §1, §2

[5] = tested on: A673 cells; assay: Inhibition of proliferation of A673 cells (CyQUANT, 72 hour); format: cell-based, human; settings: A673 cells, 72 hour, CyQUANT, read-out: Inhibition of Proliferation of A673 Cells (calculated IC50)
Description: A673 cells are a cell line derived from human […] Ewing's sarcoma. Representative compounds of the invention were tested at different concentrations (from […]; 0.5 log serial dilutions) for their ability to inhibit the proliferation of A673 cells. Known CDK inhibitors dinaciclib or N-((1S,3R)-3-((5-chloro-4-(1H-indol-3-yl)pyrimidin-2-yl)amino)cyclohexyl)-5-((E)-4-(dimethylamino)but-2-enamido)picolinamide and triptolide were used as positive controls. Cells were grown in Dulbecco's Modified Eagle's Medium, +10% FBS+1 mM Sodium Pyruvate. The cells were cultured at 37° C. in a humidified chamber in the presence of 5% CO2. Proliferation assays were conducted over a 72 hour time period. CyQUANT® (Life Technologies, Chicago, IL USA) was used to assess the anti-proliferative effects of the compounds following manufacturer's directions and utilizing the reagents supplied with the CyQUANT® kit.

T1 sequence (Q9NYV4 686-1082, species assumed): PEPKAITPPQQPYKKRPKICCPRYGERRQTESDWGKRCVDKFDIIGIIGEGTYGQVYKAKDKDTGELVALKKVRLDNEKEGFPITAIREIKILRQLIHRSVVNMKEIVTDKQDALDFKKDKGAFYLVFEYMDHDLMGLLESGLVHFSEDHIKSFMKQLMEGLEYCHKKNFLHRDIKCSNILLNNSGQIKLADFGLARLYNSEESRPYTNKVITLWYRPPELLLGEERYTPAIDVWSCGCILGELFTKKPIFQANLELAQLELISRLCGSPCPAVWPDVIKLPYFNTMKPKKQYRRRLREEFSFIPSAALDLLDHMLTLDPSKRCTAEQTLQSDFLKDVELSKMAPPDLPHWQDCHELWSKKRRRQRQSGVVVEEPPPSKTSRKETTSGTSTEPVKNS
T1 sequence (O75909 whole entry partner, species assumed, the tested form may be a part): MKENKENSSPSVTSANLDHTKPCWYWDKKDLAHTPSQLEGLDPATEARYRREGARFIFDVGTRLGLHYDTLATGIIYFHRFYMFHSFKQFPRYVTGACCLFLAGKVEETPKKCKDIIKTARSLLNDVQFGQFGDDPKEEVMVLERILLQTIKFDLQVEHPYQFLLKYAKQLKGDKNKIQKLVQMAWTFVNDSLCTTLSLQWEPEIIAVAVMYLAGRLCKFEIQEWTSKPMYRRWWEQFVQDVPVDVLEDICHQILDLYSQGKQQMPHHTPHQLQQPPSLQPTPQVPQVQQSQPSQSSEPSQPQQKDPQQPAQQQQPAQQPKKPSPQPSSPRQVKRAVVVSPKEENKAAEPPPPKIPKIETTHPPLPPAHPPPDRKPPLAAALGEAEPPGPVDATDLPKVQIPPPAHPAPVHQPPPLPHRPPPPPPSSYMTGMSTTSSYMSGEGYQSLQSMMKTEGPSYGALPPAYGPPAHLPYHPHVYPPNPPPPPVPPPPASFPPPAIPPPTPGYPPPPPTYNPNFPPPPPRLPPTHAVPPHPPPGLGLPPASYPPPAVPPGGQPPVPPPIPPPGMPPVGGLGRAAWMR
CDK7/Cyclin H/MAT1 complex, sequence (P50613 whole entry, species assumed): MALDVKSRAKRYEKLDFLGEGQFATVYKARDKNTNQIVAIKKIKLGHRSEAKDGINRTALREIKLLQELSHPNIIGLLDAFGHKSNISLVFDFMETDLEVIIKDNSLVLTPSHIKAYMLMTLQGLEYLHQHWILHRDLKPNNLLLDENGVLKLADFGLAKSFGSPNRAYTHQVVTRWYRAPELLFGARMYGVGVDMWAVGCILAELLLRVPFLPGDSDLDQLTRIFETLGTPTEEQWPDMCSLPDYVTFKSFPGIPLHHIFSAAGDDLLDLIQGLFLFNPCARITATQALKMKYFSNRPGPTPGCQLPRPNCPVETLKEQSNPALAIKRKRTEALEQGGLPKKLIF
CDK7/Cyclin H/MAT1 complex, sequence (P51946 whole entry partner, species assumed): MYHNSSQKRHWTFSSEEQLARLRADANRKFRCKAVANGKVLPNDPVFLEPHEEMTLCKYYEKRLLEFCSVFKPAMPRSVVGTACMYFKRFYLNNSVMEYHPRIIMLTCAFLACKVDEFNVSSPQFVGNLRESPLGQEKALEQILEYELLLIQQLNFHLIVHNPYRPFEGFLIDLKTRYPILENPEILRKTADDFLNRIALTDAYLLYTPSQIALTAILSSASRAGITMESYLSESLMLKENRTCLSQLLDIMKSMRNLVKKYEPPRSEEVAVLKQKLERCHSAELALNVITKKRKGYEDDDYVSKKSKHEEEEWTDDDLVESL
CDK7/Cyclin H/MAT1 complex, sequence (P51948 whole entry partner, species assumed): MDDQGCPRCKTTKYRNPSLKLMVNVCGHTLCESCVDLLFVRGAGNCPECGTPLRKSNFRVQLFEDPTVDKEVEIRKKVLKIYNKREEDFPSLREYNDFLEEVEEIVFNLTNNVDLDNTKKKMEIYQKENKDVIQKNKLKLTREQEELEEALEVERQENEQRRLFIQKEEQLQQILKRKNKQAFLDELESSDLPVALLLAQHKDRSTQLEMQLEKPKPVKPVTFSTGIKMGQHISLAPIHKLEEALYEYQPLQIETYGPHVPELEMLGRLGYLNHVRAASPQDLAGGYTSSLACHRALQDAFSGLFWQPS
CDK9/Cyclin T1 complex, sequence (P50750 whole entry, species assumed): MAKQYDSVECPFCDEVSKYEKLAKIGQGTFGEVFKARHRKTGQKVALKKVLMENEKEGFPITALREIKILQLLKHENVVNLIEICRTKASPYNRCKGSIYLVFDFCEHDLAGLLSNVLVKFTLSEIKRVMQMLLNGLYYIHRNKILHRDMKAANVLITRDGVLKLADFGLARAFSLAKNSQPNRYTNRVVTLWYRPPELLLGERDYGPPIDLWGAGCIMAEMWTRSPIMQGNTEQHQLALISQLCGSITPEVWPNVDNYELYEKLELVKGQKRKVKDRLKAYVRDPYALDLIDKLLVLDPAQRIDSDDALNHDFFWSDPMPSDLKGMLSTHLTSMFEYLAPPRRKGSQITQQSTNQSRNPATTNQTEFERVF
CDK9/Cyclin T1 complex, sequence (O60563 whole entry partner, species assumed): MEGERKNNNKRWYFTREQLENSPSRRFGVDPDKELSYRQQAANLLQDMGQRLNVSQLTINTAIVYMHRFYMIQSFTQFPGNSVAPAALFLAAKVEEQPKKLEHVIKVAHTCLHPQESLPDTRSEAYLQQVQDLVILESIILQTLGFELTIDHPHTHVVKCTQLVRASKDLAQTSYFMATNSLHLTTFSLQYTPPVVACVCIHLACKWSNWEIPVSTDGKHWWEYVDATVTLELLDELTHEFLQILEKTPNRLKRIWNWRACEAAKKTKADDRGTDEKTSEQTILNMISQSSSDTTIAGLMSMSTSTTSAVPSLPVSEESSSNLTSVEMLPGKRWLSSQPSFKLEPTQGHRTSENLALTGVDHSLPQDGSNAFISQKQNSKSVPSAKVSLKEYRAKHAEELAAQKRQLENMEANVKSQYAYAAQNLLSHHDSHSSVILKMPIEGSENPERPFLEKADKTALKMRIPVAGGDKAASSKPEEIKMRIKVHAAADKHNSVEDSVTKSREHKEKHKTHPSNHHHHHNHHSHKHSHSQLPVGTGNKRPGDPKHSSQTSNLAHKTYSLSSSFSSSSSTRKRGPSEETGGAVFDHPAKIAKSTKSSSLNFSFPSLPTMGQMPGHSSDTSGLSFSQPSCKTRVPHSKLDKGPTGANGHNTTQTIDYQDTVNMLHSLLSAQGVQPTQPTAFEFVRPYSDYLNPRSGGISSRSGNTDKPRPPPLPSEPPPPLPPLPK

Row | SMILES | IC50 [1] | IC50 [2] | IC50 [3] | IC50 [4] | IC50 ([5]; Homo sapiens, A673, 72 h) | IC50 [5]
1 | O[C@H]1CC[C@@H](c2cccc3c(-c4nc(N[C@H]5CCCNC5)ncc4C(F)(F)F)c[nH]c32)CC1 [Compound 207] | 200 to 5000 nM | < 20 nM | 200 to 5000 nM | 200 to 5000 nM | < 20 nM | 
2 | Cc1nn(C)cc1-c1cccc2c(-c3nc(N[C@H]4CCCNC4)ncc3C(F)(F)F)c[nH]c12 [Compound 171] | 200 to 5000 nM | < 20 nM | 200 to 5000 nM | 200 to 5000 nM | < 20 nM | 
3 | CC(C)c1cnc(N[C@H]2CCCNC2)nc1-c1n[nH]c2nc(C#N)ccc12 [Compound 276, (S)-3-(5-isopropyl-2-(piperidin-3-ylamino)pyrimidin-4-yl)-1H-pyrazolo[3,4-b]pyridine-6-carbonitrile] | > 5000 nM | 20 to 200 nM | > 5000 nM | > 5000 nM | 200 to 5000 nM | 
4 | COC(C)c1cnc(N[C@H]2CCCNC2)nc1-c1c[nH]c2ccccc12 (stereo partly drawn) [Compound 247] | > 5000 nM | 200 to 5000 nM | > 5000 nM | > 5000 nM | 200 to 5000 nM | 
5 | O[C@H]1CNC[C@@H](Nc2ncc(C(F)(F)F)c(-c3c[nH]c4ccccc34)n2)C1 [Compound 203, (3R,5S)-5-[[4-(1H-indol-3-yl)-5-(trifluoromethyl)pyrimidin-2-yl]amino]piperidin-3-ol] | 200 to 5000 nM | < 20 nM | 200 to 5000 nM | 200 to 5000 nM | < 20 nM | 
6 | CCc1cnc(-c2c[nH]c3ncc(F)cc23)nc1N[C@H]1CCCNC1 [Compound 231, 5-ethyl-2-(5-fluoro-1H-pyrrolo [2,3-b]pyridin-3-yl)-N-[(3S)-3-piperidyl] pyrimidin-4-amine] | > 5000 nM | > 5000 nM | > 5000 nM | > 5000 nM | 200 to 5000 nM | 
7 | FCCc1cnc(N[C@H]2CCCNC2)nc1-c1c[nH]c2ccccc12 [Compound 206] | 200 to 5000 nM | 20 to 200 nM | 200 to 5000 nM | > 5000 nM | 200 to 5000 nM | 
8 | O=C([C@H]1CC[C@H](Nc2ncc(C(F)(F)F)c(-c3c[nH]c4ccccc34)n2)CN1)N1CCCC1 [Compound 228] | 200 to 5000 nM | < 20 nM | 200 to 5000 nM | 200 to 5000 nM | 20 to 200 nM | 
9 | Ic1cnc(N[C@H]2CCCNC2)nc1-c1c[nH]c2ccccc12 [Compound 147] | 200 to 5000 nM | < 20 nM | 200 to 5000 nM | 20 to 200 nM |  | < 20 nM
10 | CCc1cnc(N[C@H]2CCCNC2)nc1-c1n[nH]c2cc(C#N)ccc12 [Compound 275, (S)-3-(5-ethyl-2-(piperidin-3-ylamino)pyrimidin-4-yl)-1H-indazole-6-carbonitrile] | 200 to 5000 nM | < 20 nM | 200 to 5000 nM | 200 to 5000 nM | 20 to 200 nM | 
11 | Cc1nn(C)cc1-c1ccc2c(-c3nc(N[C@H]4CCCNC4)ncc3C(F)(F)F)c[nH]c2c1 [Compound 226, 4-[6-(1,3-dimethylpyrazol-4-yl)-1H-indol-3-yl]-N-[(3S)-3-piperidyl]-5-(trifluoromethyl) pyrimidin-2-amine] | 200 to 5000 nM | < 20 nM | 200 to 5000 nM | 200 to 5000 nM | < 20 nM | 
12 | FC(F)(F)c1cnc(N[C@@H]2CNC[C@H](c3nnc4ccccn34)C2)nc1-c1c[nH]c2ccccc12 (relative stereo) [Compound 266] | 200 to 5000 nM | 20 to 200 nM | 200 to 5000 nM | 200 to 5000 nM |  | 20 to 200 nM
13 | CCC(=O)N[C@@H]1CNC[C@H](Nc2ncc(C(F)(F)F)c(-c3c[nH]c4c(S(C)(=O)=O)cccc34)n2)C1 (single isomer, unassigned) [Compound 259] | 200 to 5000 nM | < 20 nM | 200 to 5000 nM | 200 to 5000 nM | 20 to 200 nM | 
14 | Clc1cnc(N[C@H]2CN3CCC2CC3)nc1-c1c[nH]c2ccccc12 [Compound 134] | > 5000 nM | > 5000 nM | > 5000 nM | > 5000 nM |  | 200 to 5000 nM
15 | CCc1cnc(N[C@H]2CCCNC2)nc1-c1n[nH]c2ncccc12 [Compound 262, 5-ethyl-N-[(3S)-3-piperidyl]-4-(1H-pyrazolo[3,4-b]pyridin-3-yl)pyrimidin-2-amine] | 200 to 5000 nM | < 20 nM | 200 to 5000 nM | 200 to 5000 nM | 20 to 200 nM | 
16 | FC(F)(F)c1cnc(N[C@H]2CNC[C@@H](c3nnc4ccccn34)C2)nc1-c1c[nH]c2ccccc12 [Compound 268] | 200 to 5000 nM | 200 to 5000 nM | > 5000 nM | > 5000 nM |  | 200 to 5000 nM
17 | O=C(c1ccc2c(-c3nc(N[C@H]4CCCNC4)ncc3C(F)(F)F)c[nH]c2c1)N1CC[C@H](O)C1 [Compound 204, [(3S)-3-hydroxypyrrolidin-1-yl]-[3-[2-[[(3S)-3-piperidyl]amino]-5-(trifluoromethyl)pyrimidin-4-yl]-1H-indol-6-yl]methanone] | 200 to 5000 nM | < 20 nM | > 5000 nM | > 5000 nM | 200 to 5000 nM | 
18 | CCS(=O)(=O)c1ccc2c(-c3nc(N[C@H]4CCCNC4)ncc3C(F)(F)F)c[nH]c2c1 [Compound 274] | 200 to 5000 nM | < 20 nM | 200 to 5000 nM | 200 to 5000 nM | 20 to 200 nM | 

Further lines, with some results ahead:

Row | IC50 [1] | IC50 [2] | IC50 [3] | IC50 [4] | SMILES | IC50 ([5]; Homo sapiens, A673, 72 h) | IC50 [5]
19 | 200 to 5000 nM | < 20 nM | 200 to 5000 nM | 200 to 5000 nM | N#Cc1cc(-c2ccc3c(-c4nc(N[C@H]5CCCNC5)ncc4C(F)(F)F)c[nH]c3c2)c[nH]1 [Compound 233, 4-[3-[2-[[(3S)-3-piperidyl]amino]-5-(trifluoromethyl)pyrimidin-4-yl]-1H-indol-6-yl]-1H-pyrrole-2-carbonitrile] | 20 to 200 nM | 
20 | 200 to 5000 nM | 20 to 200 nM | 200 to 5000 nM | 200 to 5000 nM | CC[C@@H]1CC[C@H](Nc2ncc(C(F)(F)F)c(-c3c[nH]c4ccccc34)n2)CN1 [Compound 211] | 20 to 200 nM | 
21 | 200 to 5000 nM | < 20 nM | 200 to 5000 nM | 200 to 5000 nM | CSc1cnc(N[C@H]2CCCNC2)nc1-c1c[nH]c2cc(C#N)ccc12 [Compound 272, 3-[5-methylsulfanyl-2-[[(3S)-3-piperidyl]amino]pyrimidin-4-yl]-1H-indole-6-carbonitrile] | 20 to 200 nM | 
22 | > 5000 nM | 20 to 200 nM | > 5000 nM | > 5000 nM | c1ccc2c(-c3nc(N[C@H]4CCCNC4)ncc3C3CC3)c[nH]c2c1 [Compound 135] | 200 to 5000 nM | 
23 | 20 to 200 nM | < 20 nM | 200 to 5000 nM | 200 to 5000 nM | CC1(C)CNC[C@@H](Nc2ncc(C(F)(F)F)c(-c3c[nH]c4ccccc34)n2)C1 [Compound 243, N-[(3S)-5,5-dimethyl-3-piperidyl]-4-(1H-indol-3-yl)-5-(trifluoromethyl) pyrimidin-2-amine] | < 20 nM | 
24 | 200 to 5000 nM | < 20 nM | 200 to 5000 nM | 200 to 5000 nM | FC(F)(F)c1cnc(N[C@H]2CCCNC2)nc1-c1c[nH]c2cc(-c3ccnnc3)ccc12 [Compound 230, N-[(3S)-3-piperidyl]-4-(6-pyridazin-4-yl-1H-indol-3-yl)-5-(trifluoromethyl) pyrimidin-2-amine] | 20 to 200 nM | 
25 | 200 to 5000 nM | < 20 nM | 200 to 5000 nM | 200 to 5000 nM | O=S1(=O)CCN(c2cccc3c(-c4nc(N[C@H]5CCCNC5)ncc4Cl)c[nH]c23)CC1 [Compound 196, 5-chloro-4-[7-(1,1-dioxo-1,4-thiazinan-4-yl)-1H-indol-3-yl]-N-[(3S)-3-piperidyl]pyrimidin-2-amine] | 20 to 200 nM | 
26 | > 5000 nM | 200 to 5000 nM | > 5000 nM | > 5000 nM | CC(O)c1cnc(NC2CCCNC2)nc1-c1c[nH]c2ccccc12 (single isomer, unassigned) [Compound 239] |  | 200 to 5000 nM
27 | 20 to 200 nM | < 20 nM | 200 to 5000 nM | 200 to 5000 nM | C[C@H]1CNC[C@@H](Nc2ncc(Cl)c(-c3c[nH]c4ccccc34)n2)C1 [Compound 201, 5-chloro-4-(1H-indol-3-yl)-N-[(3S,5R)-5-methyl-3-piperidyl]pyrimidin-2-amine] | < 20 nM | 
